Structures can show the parent of a compound that is named as a salt. Where two headings read alike, the source gives them in different places.
Assays:
[1] = test system: experimental hepatopathy models prepared by administering carbon tetrachloride; assay: Inhibitory action on hepatopathy in hepatopathy models by carbon tetrachloride (suspension with 2% Tween 80; serum GPT and GOT); type: in vivo, ddY strain male mice; conditions: suspension with 2% Tween 80, i.v., dose 0.1 mg/kg, one hour before carbon tetrachloride
Description: (§1) In these tests, GPT (glutamic-pyruvic transaminase) and GOT (glutamic-oxaloacetic transaminase) were determined using kits for the determination of GPT and GOT upon the method by U. Lippi et al., Iatrozyme TA-Lq (available from Iatron Laboratories Inc.), wherein the NADH formed when enzymes act upon substrates can reduce nitrotetrazolium blue (NTB) via 1-methoxy-5-methylphenazinium methylsulfate (1-methoxy PMS) to form formazan, which is then subjected to colorimetric analysis at a wavelength of 560 nm.
Inhibitory actions of the present isoprenylamine derivatives was evaluated by inhibition rates of GPT and GOT in experimental hepatopathy models prepared by administering carbon tetrachloride.
The experimental hepatopathy model was prepared by intraperitoneal administration of 0.02 ml/kg carbon tetrachloride to ddY strain male mice (6 weeks old, body weight of about 30 g). Carbon tetrachloride was diluted with olive oil to a concentration of 0.5% when administered. […]
(§2) 20 hours after the administration of carbon tetrachloride, blood samples were collected from animals under ether anesthesia and centrifuged. Then, serum GPT and GOT were determined and the respective inhibition rates were calculated on the bases of the serum GPT and GOT values obtained when Compound 6 was not administered being defined as 100, respectively.

[2] = test system: experimental hepatopathy models prepared by administering carbon tetrachloride; assay: Inhibitory action on hepatopathy in hepatopathy models by carbon tetrachloride (lipid emulsion; serum GPT and GOT); type: in vivo, ddY strain male mice; conditions: Mus musculus, iv, 20 h, i.v., one hour before carbon tetrachloride; for inhibition in vivo at 0.001 mg/kg: dose 1 μg/kg; for inhibition in vivo at 0.0001 mg/kg: dose 0.1 μg/kg
Description: Carbon tetrachloride was diluted with olive oil to a concentration of 0.5% when administered. The present isoprenylamine derivatives were formulated into the lipid emulsions according to the method described in Pharmaceutical Example 8 and intravenously administered at a dose of 0.1-10 μg/kg one hour before the administration of carbon tetrachloride. 20 hours after the administration of carbon tetrachloride, blood samples were collected from animals under ether anesthesia and centrifuged. Then, serum GPT and GOT were determined and the respective inhibition rates were calculated on the bases of the serum GPT and GOT values obtained when the present isoprenylamine derivative was not administered being defined as 100, respectively.

[3] = test system: experimental hepatopathy models prepared by D-galactosamine administration; assay: Inhibitory action on hepatopathy in hepatopathy models by D-galactosamine (serum GPT and GOT); type: in vivo, Wistar strain male mice; conditions: iv, 24 h, lipid emulsion, i.v., dose 10 μg/kg, 2 hours after D-galactosamine
Description: as §1
Inhibitory action of lipid emulsions containing the present isoprenylamine derivatives was evaluated by inhibition rates of GPT and GOT in experimental hepatopathy models prepared by D-galactosamine administration.
The experimental hepatopathy model was prepared by intraperitoneal administration of D-galactosamine at 400 mg/kg to Wistar strain male […] weighing about 170 g. The present isoprenylamine derivative was formulated to a lipid emulsion according to the method described in Pharmaceutical Example 8, and was intravenously administered at a dose of 10-30 μg/kg 2 hours after the administration of D-galactosamine.
as §2, with “24” for “20”, “D-galactosamine administration,” for “administration of carbon tetrachloride,”, “form” for “from”, “the present isoprenylamine derivatives were” for “Compound 6 was”
For comparison, glycyrrhizin ammonium (Tokyo Kasei Co.) dissolved in distilled water was administered in a similar manner to that for the isoprenylamine derivatives, blood sampling and determination were conducted and the serum GPT and GOT inhibition rates were calculated.

## CC(C)=CCC/C(C)=C/CC/C(C)=C/CC/C(C)=C/CC/C(C)=C/CC/C(C)=C/CC/C(C)=C/CC/C(C)=C/CC/C(C)=C/CNCc1ccc2c(c1)OCO2 [Compound 6, N-solanesylpiperonylamine hydrochloride]
[1]
  GOT inhibition: 37%
  GPT inhibition: 34%
[2]; read-out: GOT inhibition
  inhibition in vivo at 0.001 mg/kg: 50%
[2]; read-out: GPT inhibition
  inhibition in vivo at 0.001 mg/kg: 40%
[3]; read-out: GOT inhibition
  inhibition in vivo at 0.01 mg/kg: 40%
[3]; read-out: GPT inhibition
  inhibition in vivo at 0.01 mg/kg: 40%

## CC(C)=CCC/C(C)=C/CC/C(C)=C/CC/C(C)=C/CC/C(C)=C/CC/C(C)=C/CC/C(C)=C/CC/C(C)=C/CC/C(C)=C/CC/C(C)=C/CNCc1ccc2c(c1)OCO2 [Compound 20, N-decaprenylpiperonylamine hydrochloride]
[2]; read-out: GOT inhibition
  inhibition in vivo at 0.0001 mg/kg: 53%
[2]; read-out: GPT inhibition
  inhibition in vivo at 0.0001 mg/kg: 60%
[3]; read-out: GOT inhibition
  inhibition in vivo at 0.01 mg/kg: 44%
[3]; read-out: GPT inhibition
  inhibition in vivo at 0.01 mg/kg: 43%

From US6048882A, “Prophylactic and therapeutic agent for hepatic diseases” (Nisshin Flour Milling Co., Ltd., priority 1995, dated 2000)
